Results reported in the NIST ThermoML archive (doi:10.1021/je2013704).

Assay: mn = molality of the nth substance listed, in mol/kg
Conditions: Liquid, Vibrating tube method

[I-].[K+] [potassium iodide] + O
mass density [kg/m3]
Conditions | 1050 kPa | 10020 kPa | 19970 kPa | 29900 kPa | 39830 kPa | 49760 kPa | 59680 kPa | 68120 kPa
372.99 K, m1 = 0.669 | – | – | – | – | 1050.01 | 1054.18 | 1058.24 | 1061.64
372.99 K, m1 = 0.9 | – | – | – | – | 1074.32 | 1078.51 | 1082.5 | 1085.89
372.99 K, m1 = 1.063 | – | – | – | 1086.83 | 1091.17 | 1095.44 | 1099.61 | 1103.03
397.97 K, m1 = 0.669 | 1012.71 | 1017.19 | 1022.06 | 1026.71 | 1031.29 | 1035.78 | 1040.1 | 1043.65
397.97 K, m1 = 0.9 | 1036.96 | 1041.47 | 1046.32 | 1050.95 | 1055.56 | 1060.02 | 1064.32 | 1067.94
397.97 K, m1 = 1.063 | 1053.24 | 1057.79 | 1062.77 | 1067.47 | 1072.16 | 1076.71 | 1081.09 | 1084.7
422.94 K, m1 = 0.669 | 990.31 | 995.34 | 1000.61 | 1005.73 | 1010.72 | 1015.55 | 1020.17 | 1024
422.94 K, m1 = 0.9 | 1014.85 | 1019.62 | 1024.97 | 1030.16 | 1035.28 | 1040.03 | 1044.78 | 1048.68
422.94 K, m1 = 1.063 | 1030.64 | 1035.74 | 1041.07 | 1046.25 | 1051.3 | 1056.19 | 1060.87 | 1064.81
447.94 K, m1 = 0.669 | 965.35 | 970.94 | 976.95 | 982.65 | 988.1 | 993.34 | 998.49 | 1002.64
447.94 K, m1 = 0.9 | 990.56 | 996.18 | 1002.22 | 1007.94 | 1013.36 | 1018.68 | 1023.8 | 1027.98
447.94 K, m1 = 1.063 | 1005.63 | 1011.23 | 1017.26 | 1022.96 | 1028.47 | 1033.81 | 1038.97 | 1043.19
472.96 K, m1 = 0.669 | – | 944.19 | 950.96 | 957.4 | 963.57 | 969.44 | 975.11 | 979.68
472.96 K, m1 = 1.063 | – | 984.84 | 991.38 | 997.97 | 1004.2 | 1010.14 | 1015.81 | 1020.4
